The IC50 is the concentration that gives 50% inhibition.

The test system of data set [1] is IL-17 secretion in mouse splenocyte. Kind of data set: Mouse IL-17 production assay using mouse splenocyte. The format is cell-based. Particulars: Th17 differentiation, 72 h, n = 3, read-out: inhibition of secretion of IL-17 in mouse splenocyte, average IC50. The procedure: To evaluate the impact of SHR168442 on IL-17 secretion in mouse cells, the mouse Th17 cell differentiation kit from R&D Systems was used to polarize the mouse spleen cells. Differentiation of Th17 cells in mouse splenocyte for 72 h was confirmed by secretion of IL-17 in culture supernatant, 93 pg/mL in average (2.7 pg/mL without differentiation), a 34-fold increase of IL-17 secretion.
Mouse splenocytes (Zenbio) were stimulated by Mouse Th17 Differentiation Media (R&D Systems) according to the manufacturer’s protocol. On day 5, compounds were added and then incubated for 72 h, and IL-17 in the supernatant was measured using IL-17A homodimer (mouse) AlphaLISA detection kit (Perkin Elmer) according to the manufacturer’s protocol.

A short description of the next data set: Dermal PK, BALB/c mouse. It is filed as in vivo. Particulars: for Exposure in plasma: 2% in Vaseline, topical. The protocol:
The dermal PK studies of Compound 1 in Vaseline were performed in dorsal skin of female C57BL/6 and male BALB/c mice via topical route. The skin (1.5 cm × 2 cm) was shaved one day prior to the dosing. At tissue collecting time point, the skin surface was decontaminated (twice with hand soap, twice with water, alternatively, and dried with tissue swabs). Stratum corneum is removed with tape strips for five times. The tissues were homogenized for PK analyses of Compound 1 by LC/MS.

Data set [2] concerns IMQ-induced psoriasis-like skin inflammation mice. Kind of data set: IMQ-induced psoriasis-like skin inflammation model, topical treatment. It is filed as in vivo, BALB/c mice. The protocol: At the end of the study, the mouse plasma and diseased back skin were collected 3 h after topical application for PK analysis.
Psoriasis was induced by topical application of IMQ cream on the shaved dorsal skin as described by Leslie van der Fits et al.[18]. SHR168442 in Vaseline (n = 10 per group) was treated once a day (QD) from 3 days prior to day 1, and then twice a day (BID) from day 1 to day 6. The animal was sacrificed at 3 h after the first dose in the morning of day 7. Erythema, scaling, and thickness of the back skin were scored independently daily on a scale from 0 to 4. Blood and back skin tissues from the study were collected at 3 h (n = 4) post dosing in the morning of […]. The plasma and skin tissues after tape stripping were analyzed for Compound 1 as described above. The in-life portion of the study was carried out at Washington Biotechnology (Baltimore, MD). The housing conditions and in-life procedures were approved by IACUC. The experiments were conducted in accordance with the Guiding Principles for the Care and Use of Laboratory Animals and complied with the ARRIVE guidelines.

The next data set concerns the target T1, RORα (Homo sapiens, UniProt P35398).
T1 sequence (P35398 272-523 limits assumed): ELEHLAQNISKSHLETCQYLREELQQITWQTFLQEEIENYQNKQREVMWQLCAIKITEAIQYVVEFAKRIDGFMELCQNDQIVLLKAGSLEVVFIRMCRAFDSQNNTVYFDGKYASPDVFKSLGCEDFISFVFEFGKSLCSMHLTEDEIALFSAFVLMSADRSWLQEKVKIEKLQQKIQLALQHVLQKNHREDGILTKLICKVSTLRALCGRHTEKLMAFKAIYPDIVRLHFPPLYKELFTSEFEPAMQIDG
Kind of data set: RORα luciferase reporter assay. The format is cell-based. The conditions noted are these: up to 10,000 nM, n = 3. The procedure:
We next assessed the selectivity of SHR168442 against another ROR family member, RORα, using nuclear reporter assay. […] ATRA (all trans-retinoic acid) was used as a positive control in the assay.
(§1) Cell-based luciferase reporter assays for RORα and RORγ (Indigo Biosciences) were performed according to the manufacturer’s protocol.
(In general: A reporter such as luciferase makes a cellular process visible.)

A short description of another data set: Dermal PK, miniature pig. It is filed as in vivo, Bama miniature pig. Particulars: for Exposure in plasma: topical. The protocol:
Similar procedures were carried out for dermal PK of female SD rats and female Bama miniature pigs. Briefly, each area of topical application was 4 cm × 9 cm for SD rats and 6 cm × 6 cm for miniature pigs. After decontamination, the biopsy sections of SD rats were tape stripped for five times and those of miniature pig for twenty-five times, respectively. Blood and dorsal skin tissues of the animals were collected and analyzed for the compounds via LC/MS. The experimental protocol used in this study was approved by the Institutional Animal Care and Use Committees (IACUC). The experiments were conducted in accordance with the Guiding Principles for the Care and Use of Laboratory Animals and complied with the ARRIVE guidelines.

The target in the next data set is T2, RORγ (Homo sapiens, UniProt P51449).
T2 sequence (P51449 260-518 limits assumed): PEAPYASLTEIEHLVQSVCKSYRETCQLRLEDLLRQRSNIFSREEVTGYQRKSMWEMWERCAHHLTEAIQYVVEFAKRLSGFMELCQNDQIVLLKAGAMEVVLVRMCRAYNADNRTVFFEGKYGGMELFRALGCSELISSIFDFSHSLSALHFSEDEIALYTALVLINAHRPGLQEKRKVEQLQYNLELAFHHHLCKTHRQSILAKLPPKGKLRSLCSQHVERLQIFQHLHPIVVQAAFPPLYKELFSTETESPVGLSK
Kind of data set: RORγ luciferase reporter assay. It is filed as cell-based. The conditions noted are these: nuclear reporter assay, n = 3; read-out: inhibition of the RORγ transcriptional activity, average IC50. The protocol: Ursolic acid was used as a positive control.
as §1

The nature of data set [3]: Liver microsomal stability, rat. The format is in vitro ADME. Particulars: liver microsomes, pH 7.4, read-out: Liver microsomal stability, t1/2, Rat. The protocol:
The compound was mixed with 0.5 mg/ml human liver microsome (Thermal Fisher) at a final concentration of 1 µM in 100 mM potassium phosphate buffer, pH 7.4. The reactions were initiated by the addition of 1 mM NADPH. Samples in duplicate were incubated at 37 °C with mixing. 100 µL aliquots were transferred after 0, 5, 10, 30, 45, 60 minutes to a new tube with 300 µL acetonitrile, incubated on ice for 30 minutes, centrifuged at 1800×g at 4 °C for 10 minutes. The supernatants were transferred to glass vials subjected to LC/MS analysis. Peak areas were measured to calculate half-life according to the formula t1/2 = − 0.693/slope of linear regression analysis of ln [concentration] versus incubation time. Similar methods were applied to access mouse and rat liver microsomal stability of the compounds.

Take `CCS(=O)(=O)c1ccc([C@H](CCO)c2nc3c(Cl)c(N4CCC(F)(F)CC4)c(Cl)cc3[nH]2)cc1` [SHR168442, (S)-3-(4,6-dichloro-5-(4,4-difluoropiperidin-1-yl)-1H-benzo[d]imidazol-2-yl)-3-(4-(ethylsulfonyl)phenyl)propan-1-ol]: the IC50 in data set [1] came out at 54 ± 12 nM; on RORγ, 15 ± 9 nM. In addition, the Exposure in plasma result in the data set “Dermal PK, BALB/c mouse” (3 h) was “blq (below limit of quantitation (< 6 ng/mL))”; in “Dermal PK, BALB/c mouse” (6 h), “blq (below limit of quantitation (< 6 ng/mL))”; in “Dermal PK, miniature pig” (2% in Vaseline, 3 h), “blq (below limit of quantitation (< 6 ng/mL))”; in the data set “Dermal PK, miniature pig” (2% in Vaseline, 6 h), “blq (below limit of quantitation (< 6 ng/mL))”; in the data set “Dermal PK, miniature pig” (2% in Vaseline, 24 h), “blq (below limit of quantitation (< 6 ng/mL))”; in “Dermal PK, miniature pig” (8% in Vaseline, 3 h) it was “blq (below limit of quantitation (< 6 ng/mL))”. Further, the Exposure in plasma result in the data set “Dermal PK, miniature pig” (8% in Vaseline, 6 h) is on record as “blq (below limit of quantitation (< 6 ng/mL))”; in “Dermal PK, miniature pig” (8% in Vaseline, 24 h) it was “blq (below limit of quantitation (< 6 ng/mL))”. The same molecule displayed a concentration at 3 h in “Dermal PK, BALB/c mouse” (male, BALB/c, mouse, in vivo) of 2460 ng/g. The concentration at 6 h in the data set “Dermal PK, BALB/c mouse” (male, BALB/c, mouse, in vivo) was 4390 ng/g. In data set [2] (2%, 4% and 8% in Vaseline topical), the “cumulative scores (scaling, erythema, thickness)” value is on record as “clear dose-dependent reduction”. For the same molecule, the scores of erythema entry in data set [2] (4% and 8% topical, day 6, versus vehicle control) was “significantly reduced”. Also, the score of scaling in data set [2] (8% in Vaseline topical, days 4 to 6, scale 0 to 4) is reported as less than 1.0. For the same molecule, in data set [2] (3 h after topical application, all treatments), the “exposures in diseased skin and plasma” value is “high in skin and low in plasma”. Besides, the body weight result in data set [2] (all treatment groups) is given as “no significant body weight loss”. Besides, the “effect on RORα reporter activity” value on RORα is “little effect”. Also, the “systemic exposures in miniature pigs” value in “Dermal PK, miniature pig” (female, Bama, pig, in vivo) is given as less than 6 ng/mL. The half-life at 1 µM in data set [3] came to 8.6 min.
